Earlier results as cited in patent publication US6909006B1, “Cyclopropylindole derivatives” (priority 1999, dated 2005).

Test system: tumour cells growing in vitro

COc1c(O)c2c(c3cc(C(=O)N4CCc5c4c(O)c(OC)c4[nH]c(C(=O)N6CC7CC78C6=CC(=O)c6[nH]cc(C)c68)cc54)[nH]c13)CCN2C(N)=O (stereo not shown) [CC-1065]
IC50s in tumour cells growing in vitro: low pM range
